What all share (format): biochemical
Test [1] has as its target β2 subunit of the constitutive proteasome (Homo sapiens, UniProt P49720+Q99436).
Test [2] deals with β1 subunit of the constitutive proteasome (Homo sapiens, UniProt P28072+Q99436).
The target of test [3] is β5 subunit of the constitutive proteasome (Homo sapiens, UniProt P20618+P28074).

Some results are limits rather than exact numbers.

`CCCC[C@H](NC(=O)[C@@H]1CCCN1C(=O)[C@H](C)NC(C)=O)C(=O)N[C@H](/C=C/S(=O)(=O)c1ccc(O)cc1)CC(C)C` [Ia, Ac-Ala-Pro-Nle-Leu-4-hydroxyphenyl-vinylsulfone]: the IC50 in test [1] is greater than 100 µM; in test [2], 4 ± 0.67 µM; in test [3], greater than 100000 nM.

On to `COc1ccc(C[C@H](NC(=O)Cc2ccc3ccccc3c2)C(=O)N[C@@H](Cc2ccccc2)C(=O)N[C@H](/C=C/S(=O)(=O)c2ccc(O)cc2)CC(C)C)cc1` [IIa, (Tyr(Me)-Phe-Leu-4-hydroxyphenyl-vinylsulfone)-2-(naphthalen-2-yl)-acetamide], for which the IC50 in test [1] amounted to 78 ± 23 µM; in test [2], 32 ± 16 µM; in test [3] it was 70 ± 10 nM.

For `CCCC[C@H](NC(=O)[C@@H]1CCCN1C(=O)[C@H](C)NC(C)=O)C(=O)N[C@H](/C=C/S(C)(=O)=O)CC(C)C` [Ib, Ac-Ala-Pro-NLe-Leu-methyl-vinylsulfone], the figures for the 50% inhibitory concentration (IC50) in test [1], in test [2] and in test [3] were greater than 100 µM, 7.8 ± 0.86 µM and greater than 100000 nM, respectively.

`COc1ccc(C[C@H](NC(=O)Cc2ccc3ccccc3c2)C(=O)N[C@@H](Cc2ccccc2)C(=O)N[C@H](/C=C/S(C)(=O)=O)CC(C)C)cc1` [IIb, (Tyr(Me)-Phe-Leu-methyl-vinylsulfone)-2-(naphthalen-2-yl)-acetamide]: the IC50 in test [1] is greater than 100 µM; in test [2] it was greater than 100 µM; in test [3], 110 ± 20 nM.

As usually defined, the IC50 is the midpoint of a concentration-inhibition curve. Higher therefore signals weaker potency.

The values are drawn from PMC3042124 (Organic & biomolecular chemistry, 2010).
